Assays:
[1] = Water solubility; type: physicochemical; settings: for water solubility: synthesis example, isolated powder
[2] = pH of 30% solution; type: physicochemical
[3] = test system: Klebsiella Pneumoniae; test: Antibacterial activity MIC; type: cell-based; settings: pH 7-7.5, sample 30% in aqueous solution
Protocol: (§1) The ability of Tetra Hydroxy Ethyl Di Sulphate-Di Natrium (THES) as a Sulphate chelating agent to open/loosen the cell membrane was tested against two types of bacterias, ie: Staphylococcus aerus (gram positive) that has two cell membrane (the outer membrane as the outer cell wall and the inner membrane) and E. Colli (gram negative) that has three cell membranes. First, the Minimum Inhibitory Concentration (MIC) of each bacterias was determined, then the bacteria membrane alteration after contacting with THES were observed by Electron Microscope (TEM and SEM) with the THES concentration range below and above MIC. Antibacterial activity was tested using disc-diffusion method by checking the clear zone from the paper disc inhibition that contains THES. The growth curve were made by means examining the bacterial culture on the broth media.
(§2) • 1. Bacteria preparation • The testing bacterias were growth on the aqueous medium and incubated for 24 hours at 37° C. • 2. […] This gradual concentration variation is necessary to determine MIC (Minimum Inhibitory Concentration) and the bacteriostatic/bactericidal properties of the tested Biocide. • 3. Determination of Killing method (bacteriostatic and bactericidal properties) • The testing was done on the aqueous medium contains the tested substance with the concentration 5, 10 and 20%. The turbidity of the cultured medium then will be measured every 30 minutes until 270 minutes with spectrophotometer. • 4. Preparation of microbe cells for electron microscope examination • Staphylococcus aereus and Escherichia coli were growth on the aqueous medium within 24 hours, then mixed with tetra hydroxy ethyl di sulphate di sodium (THES) with the final concentration 0.6; 5 and 10%. This system mixtures then was placed under vibrating incubator for several hours. Microbe cells then were separated and washed, first with NaCl 0.9% then with distilled water. Cells then were utilized for the preparation of electron microscope testing. • 5. Preparation for Scanning Electron Microscope (SEM) examination • Bacteria cells were suspended into 4% collodion. The said suspensions then were fixed on some metal disc and were coated with the gold powder. Then were examined with electron microscope and pictured. • 6. Preparation for Transmittance Electron Microscope (TEM) examination • a) The prepared microbes in (5) were fixed into a mixture of formaldehyde 2% and glutaraldehyde 0.5% for 2 hours at 4° C. • b) The above mixtures then was three times washed with pH 7 phosphate buffer, then were diluted into bovin serum albumin (BSA) 1/5 for embedded preparation, while leave glutaraldehyde hardening at room temperature. • c) After leaving dehydrated in alcohol, the white LR resin then will be infiltrated. • d) Embedded process were done at white LR resin following by polymerization process at 60° C. for 48 hours time. The polymerization product as hardened capsules then are ready to be sliced. • e) Making of semi thin and ultra thin slices. • Slices of microbe sample were made by utilizing automatic ultra microtom. To get the precised and accurate slices of sample, semi thin slice were made and coloured with blue toluidine then were examined under the visible microscope. When the right slices were obtained, ultra thin slices were prepared and were made contrast with uranil acetate and lead citrate. The dried ultra thin slices then can be examined with Transmittance Electron Microscope. Testing Results Minimum Inhibitory Concentration (MIC)
(§3) The test done on the pH range of 7-7.5 with the sample of Tetra Hydroxy Ethyl Di Sulphate-Di Natrium (THES-Di Natrium) 30% in aqueous solution.

[4] = test system: Staphylococcus Aerus ATCC 6538; test: Antibacterial activity MIC; type: cell-based; settings: pH 7-7.5, sample 30% in aqueous solution
Protocol: as §1, §2, §3

[5] = test system: Bacillus Subtilis ATCC 6633; test: Antibacterial activity MIC; type: cell-based; settings: pH 7-7.5, sample 30% in aqueous solution
Protocol: as §1, §2, §3

[6] = test system: Pseudomonas Aeruginosa ATCC 27853; test: Antibacterial activity MIC; type: cell-based; settings: pH 7-7.5, sample 30% in aqueous solution
Protocol: as §1, §2, §3

[7] = test system: Acinetobacter Anitratus; test: Antibacterial activity MIC; type: cell-based; settings: pH 7-7.5, sample 30% in aqueous solution
Protocol: as §1, §2, §3

[8] = test system: Staphylococcus Epidermidis ATCC 12228; test: Antibacterial activity MIC; type: cell-based; settings: pH 7-7.5, sample 30% in aqueous solution
Protocol: as §1, §2, §3

[9] = test system: Salmonella Typhii; test: Antibacterial activity MIC; type: cell-based; settings: pH 7-7.5, sample 30% in aqueous solution
Protocol: as §1, §2, §3

[10] = test system: Escherichia Coli ATCC 25922; test: Antibacterial activity MIC; type: cell-based; settings: pH 7-7.5, sample 30% in aqueous solution
Protocol: as §1, §2, §3

[11] = test system: Staphylococcus Aerus; test: Biocide effication plate test, Staphylococcus Aerus; type: cell-based; settings: biocide dosing 0.025%
[12] = test system: Staphylococcus Aerus ATCC 6538; test: Electron microscope (TEM and SEM) examination of cell membrane; type: cell-based; settings: in contact with 0.05% and 1% THES at pH 7 (FIG. 4)
Protocol: as §1
(§4) Staphylococcus aerus ATCC 6538, Escherichia coli ATCC 9637 were supplied from Chemotherapy Laboratory of Pharmaceutical Department, Bandung Institute of Technology (ITB).
(§5) • 1. […] The turbidity of the cultured medium then will be measured every 30 minutes until 270 minutes with spectrophotometer. • 4. […] The polymerization product as hardened capsules then are ready to be sliced. • e) Making of semi thin and ultra thin slices. • Slices of microbe sample were made by utilizing automatic ultra microtom. […]

[13] = test system: Escherichia coli ATCC 9637; test: as above; type: cell-based; settings: in contact with 0.05% and 1% THES at pH 7 (FIG. 5)
Protocol: as §1, §4, §5

[14] = test system: Aspergillus Niger; test: Antifungal activity MIC; type: cell-based; settings: pH 7-7.5, sample 30% in aqueous solution
Protocol: as §1
as §5, with “1. Bacteria preparation • The testing bacterias were growth on the aqueous medium and incubated for 24 hours at 37° C. • 2.” for “1.”

[15] = test system: Candida Albicans; test: Antifungal activity MIC; type: cell-based; settings: pH 7-7.5, sample 30% in aqueous solution
Protocol: as §1
as §5, with “1. Bacteria preparation • The testing bacterias were growth on the aqueous medium and incubated for 24 hours at 37° C. • 2.” for “1.”

[16] = test system: Total Plate Count Microorganism; test: Biocide effication plate test, total plate count microorganism; type: cell-based; settings: for Total Plate Count: Blanco/Control 2400
[17] = test system: E. Coli; test: Biocide effication plate test, E. Coli; type: cell-based; settings: for Total Plate Count: Blanco 3900

SMILES: O=S(=O)(O)OC(OS(=O)(=O)O)(OS(=O)(=O)O)C(OS(=O)(=O)O)(OS(=O)(=O)O)OS(=O)(=O)O [EHS, Ethyl Hexa Sulphate acid (EHS)]
- Solubility @ 25° C. [1]: 48%
- water solubility [1]: 48%
- pH of 30% solution [2]: 0.0

SMILES: O=S(=O)([O-])OC(O)(O)C(O)(O)OS(=O)(=O)[O-].[Na+].[Na+] [THES-di Natrium]
- Solubility @ 25° C. [1]: 31.5%
- water solubility [1]: 31%
- Minimum Inhibitory Concentration (MIC) [3]: 0.234%
- Minimum Inhibitory Concentration (MIC) [4]: 0.234%
- Minimum Inhibitory Concentration (MIC) [5]: 0.234%
- Minimum Inhibitory Concentration (MIC) [6]: 0.115%
- Minimum Inhibitory Concentration (MIC) [7]: 0.115%
- Minimum Inhibitory Concentration (MIC) [8]: 0.234%
- Minimum Inhibitory Concentration (MIC) [9]: 0.115%
- Minimum Inhibitory Concentration (MIC) [10]: 0.234%
- Killing efficiency [11]: 69.8
- Total Plate Count ([11]; Blanco 980): 296 Colony/ml
- transversal section (TEM) of cell, cell membrane alteration [12]: partly empty cells that has already lost its cytoplasm liquid due to lysis out of cell wall membrane
- transversal section (TEM) of cell, cell membrane alteration [13]: also experienced the said internal cell liquid lysis out of its cell wall membrane layers
- Minimum Inhibitory Concentration (MIC) [14]: 0.937%
- Minimum Inhibitory Concentration (MIC) [15]: 0.469%
- Killing efficiency ([16]; biocide dosing 0.05%): 94.5
- Total Plate Count ([16]; biocide dosing 0.05%): 132 Colony/ml
- Killing efficiency ([16]; biocide dosing 0.1%): 95.2
- Total Plate Count ([16]; biocide dosing 0.1%): 115 Colony/ml
- Killing efficiency ([16]; biocide dosing 0.5%): 95.8
- Total Plate Count ([16]; biocide dosing 0.5%): 101 Colony/ml
- Killing efficiency ([16]; biocide dosing 1.0%): 96.7
- Total Plate Count ([16]; biocide dosing 1.0%): 80 Colony/ml
- pH of 30% solution [2]: 0.5-1.5
- Killing efficiency ([17]; biocide dosing 0.025%): 48.5
- Total Plate Count ([17]; biocide dosing 0.025%): 2010 Colony/ml
- Killing efficiency ([17]; biocide dosing 0.05%): 70.5
- Total Plate Count ([17]; biocide dosing 0.05%): 1150 Colony/ml
- Killing efficiency ([17]; biocide dosing 0.1%): 73.1
- Total Plate Count ([17]; biocide dosing 0.1%): 1050 Colony/ml
- Killing efficiency ([17]; biocide dosing 0.5%): 75.1
- Total Plate Count ([17]; biocide dosing 0.5%): 970 Colony/ml
- Killing efficiency ([17]; biocide dosing 1.0%): 81.5
- Total Plate Count ([17]; biocide dosing 1.0%): 720 Colony/ml
- Killing efficiency ([17]; biocide dosing 5.0%): 83.8
- Total Plate Count ([17]; biocide dosing 5.0%): 630 Colony/ml

SMILES: O=S(=O)([O-])OC(O)C(O)(OS(=O)(=O)[O-])C(O)(OS(=O)(=O)[O-])C(O)OS(=O)(=O)[O-].[Na+].[Na+].[Na+].[Na+] (stereo not shown) [Tetra Hydroxy Butyl 1,2,3,4 Tetra Sulphate Tetra Natrium]
- Solubility @ 25° C. [1]: 27.3%
- pH of 30% solution [2]: 0.0-1.0

SMILES: O=S(=O)(O)OC(O)C(O)(OS(=O)(=O)O)C(O)(OS(=O)(=O)O)C(O)OS(=O)(=O)O (stereo not shown) [Tetra Hydroxy Butyl 1,2,3,4 Tetra Sulphate]
- Solubility @ 25° C. [1]: 39.6%
- pH of 30% solution [2]: <0.0

SMILES: O=S(=O)(O)OC(O)(O)C(O)(O)OS(=O)(=O)O [Tetra Hydroxy Ethyl Di Sulphate]
- Solubility @ 25° C. [1]: 48.0%
- water solubility [1]: 48%
- pH of 30% solution [2]: <0.5

SMILES: O=S(=O)([O-])OOC(O)C(O)(OS(=O)(=O)[O-])C(C(O)OS(=O)(=O)[O-])C(O)OS(=O)(=O)[O-].[Na+].[Na+].[Na+].[Na+] (stereo not shown) [Tetra Hydroxy Isoamyl 1,2,3,4-Tetra Sulphate Tetra Natrium]
- Solubility @ 25° C. [1]: 40.1%
- pH of 30% solution [2]: 0.0-0.5

SMILES: O=S(=O)(O)OOC(O)C(O)(OS(=O)(=O)O)C(C(O)OS(=O)(=O)O)C(O)OS(=O)(=O)O (stereo not shown) [Tetra Hydroxy Isoamyl 1,2,3,4-Tetra Sulphate]
- Solubility @ 25° C. [1]: 61.2%
- pH of 30% solution [2]: <0

SMILES: O=S(=O)([O-])OC(O)C(C(O)OS(=O)(=O)[O-])C(O)OS(=O)(=O)[O-].[Na+].[Na+].[Na+] (stereo not shown) [Tri Hydroxy Isobutyl 1,2,3-Tri Sulphate Tri Natrium]
- Solubility @ 25° C. [1]: 36.2%
- pH of 30% solution [2]: 0.0-1.0

SMILES: O=S(=O)(O)OC(O)C(C(O)OS(=O)(=O)O)C(O)OS(=O)(=O)O (stereo not shown) [Tri Hydroxy Isobutyl 1,2,3-Tri Sulphate]
- Solubility @ 25° C. [1]: 56.7%
- pH of 30% solution [2]: <0.0
